The results in this text go back to patent US20260248763A1 (BIO GENUINE (SHANGHAI) BIOTECH CO., LTD, priority 2023, published 2026).

The nature of series [1]: Blood-brain distribution determination in SD rats. Type of series: in vivo. Conditions: female SD rats, oral, 5 mg/kg; for Kp / AUC(0-t): rat; for Kp: brain/plasma, read-out: Brain/plasma exposure ratio; for AUC(0-t): plasma, read-out: Plasma area under the curve AUC0-t. As to the method: Test Example 4: Blood-Brain Distribution Determination in SD Rats
In this study, female SD rats were selected as test animals. The LC/MS/MS method was used to quantitatively determine the drug concentrations of the test compounds in plasma and brain tissues at three different time points (0.5 h, 2 h, 4 h or 6 h) after oral administration (5 mg/kg or 10 mg/kg) in rats, so as to evaluate the pharmacokinetic profile of the test drugs in rats.
(§1) The example compounds of the present disclosure, made in house.
(§2) SD rats (female, 180-220 g, 6-8 weeks old, purchased from Beijing Vital River Laboratory Animal Technology Co., Ltd., with animal production license number SCXK (Beijing) 2021-0006).
Vehicle for oral administration: 5% DMSO+95% PEG400 or a mixture of (50% Labrasol+50% Water).
The test compound, formulated as a clear solution or suspension, was administered to overnight-fasted SD rats via oral gavage. For oral gavage, blood samples (0.25 mL) were collected via jugular vein puncture at pre-dose (0 h) and 0.5 h, 2 h, 4 h or 6 h post-dose. The samples were placed into sodium heparin anticoagulant tubes. After collection, the blood samples were placed on wet ice and centrifuged within 1 hour to separate the plasma. The separated plasma was stored frozen in a −80° C. freezer. After blood collection, the animals were euthanized by cervical dislocation. The whole brain tissue was dissected out. The collected brain tissue was first rinsed with physiological saline, blotted dry with absorbent paper, and then stored frozen in a −80° C. freezer. Prior to analysis, the brain tissue samples and plasma samples were taken out from the −80° C. freezer. After the brain tissue samples were completely thawed, a given amount of brain tissue was weighed, and 50% methanol/water was added for homogenization. Drug concentrations in plasma and brain tissues were determined using the LC-MS/MS method, and the relevant pharmacokinetic parameters were calculated using the non-compartmental model with linear-log trapezoidal method in Phoenix WinNonlin 8.2.0 pharmacokinetic software.

Series [2] can be described thus: Pharmacokinetic determination in SD rats. Type of series: in vivo. Conditions: rat, female SD rats, plasma; for AUC(0-t): read-out: Area under the curve AUC0-t; for clearance: read-out: Clearance Cl; for half-life: read-out: Half-life T1/2 (converted). As to the method:
Test Example 3: Pharmacokinetic Determination in SD Rats
In this study, female SD rats were selected as test animals. The LC/MS/MS method was used to quantitatively determine the plasma drug concentrations of the test compounds at different time points after intravenous injection (2 mg/kg) or oral administration (5 mg/kg) in rats, so as to evaluate the pharmacokinetic profile of the test drugs in rats.
as §1, §2
Vehicle for intravenous administration: 5% DMSO+10% Solutol+85% Saline.
Vehicle for oral administration: 5% DMSO+95% PEG400.
The test compound, formulated as a clear solution or suspension, was administered to overnight-fasted SD rats via tail vein injection or oral gavage. For intravenous administration, blood samples (0.25 mL) were collected via jugular vein puncture at pre-dose (0 h) and 0.083, 0.25, 0.5, 1, 2, 4, 6, 8, and 24 h post-dose. The samples were placed into sodium heparin anticoagulant tubes, and the mixture was vortexed thoroughly and centrifuged at 6,000 rpm for 3 minutes at 4° C. For oral gavage, blood samples were collected via jugular vein puncture at pre-dose (0 h) and 0.083, 0.25, 1, 2, 4, 6, 8, and 24 h post-dose. The samples were placed into sodium heparin anticoagulant tubes, and the mixture was vortexed thoroughly and centrifuged at 6,000 rpm for 3 minutes. Plasma drug concentrations were determined using the LC-MS/MS method, and the relevant pharmacokinetic parameters were calculated using the non-compartmental model with linear-log trapezoidal method in Phoenix WinNonlin 8.2.0 pharmacokinetic software.

Usually clearance stands for a measure of how efficiently the substance is removed, as volume per time.

Like-named read-outs stand apart in the source and are kept apart here.

Consider `CON=C1CC(CO)N(C(=O)c2ccc(-c3cccc(C#N)c3C)c3c2OCO3)C1` (single isomer, unassigned) [Example C0099], for which, in series [1], the “Brain tissue area under the curve AUC0-t” value was 150 ng·h/g, the Kp stood at 0.1 and the AUC(0-t) amounted to 1460 ng·h/mL.
In the case of `CO/N=C1/C[C@@H](CO)N(C(=O)c2ccc(-c3cccc(C#N)c3Cl)cc2)C1` [Example A0203, 2-Chloro-3-(4-[(2S, 4Z)-2-(hydroxymethyl)-4-(methoxyimino)pyrrolidine-1-carbonyl]phenyl)benzonitrile], in series [2] (2 mg/kg, IV (2 mpk)), the AUC(0-t) was 7160 ng·h/mL, the clearance is 4.66 mL/min/kg and the half-life is 5.23 h. Moreover, in series [2] (5 mg/kg, PO (5 mpk)), the AUC(0-t) stood at 16000 ng·h/mL and the half-life is 5.97 h. Also, in series [1], the “Brain tissue area under the curve AUC0-t” value is 2579 ng·h/g, the Kp was 0.39 and the AUC(0-t) was 6670 ng·h/mL.
For the compound `CO/N=C1/C[C@@H]([C@@H](C)O)N(C(=O)c2ccc(-c3cccc(C#N)c3C)cc2)C1` (single isomer, unassigned) [Example C0112], in series [1], the “Brain tissue area under the curve AUC0-t” value stood at 818 ng·h/g, the Kp worked out at 0.52 and the AUC(0-t) was determined as 1570 ng·h/mL.
Take `CO/N=C1/C[C@@H](CO)N(C(=O)c2ccc(-c3cccc(C#N)c3C)cc2)C1` [Example C0058, (S, Z)-4′-(2-(Hydroxymethyl)-4-(methoxyimino)pyrrolidine-1-carbonyl)-2-methyl-[1,1′-biphenyl]-3-carbonitrile]: in series [2] (2 mg/kg, IV (2 mpk)), the AUC(0-t) came out at 4640 ng·h/mL, the clearance was 7.4 mL/min/kg and the half-life is 3 h. Besides, in series [2] (5 mg/kg, PO (5 mpk)), the AUC(0-t) was determined as 11400 ng·h/mL and the half-life is 3.11 h. Further, in series [1], the “Brain tissue area under the curve AUC0-t” value amounted to 1109 ng·h/g, the Kp came out at 0.32 and the AUC(0-t) turned out to be 3520 ng·h/mL.
As to `CO/N=C1/C[C@@H](CO)N(C(=O)c2ccc(-c3cc(F)cc(C#N)c3C)c3c2OCCO3)C1` [Example C0152, (S,Z)-5-Fluoro-3-(8-(2-(hydroxymethyl)-4-(methoxyimino)pyrrolidine-1-carbonyl)-2,3-dihydrobenzo[b][1,4]dioxin-5-yl)-2-methylbenzonitrile], in series [1], the “Brain tissue area under the curve AUC0-t” value stood at 169 ng·h/g, the Kp came to 0.08 and the AUC(0-t) worked out at 2050 ng·h/mL.
